We go through one compound from patent US12485107B2, “Methods for the prevention or treatment of cytokine storm” (Beth Israel Deaconess Medical Center, Inc., priority 2019, dated 2025).

The test system of series [1] is primary murine peritoneal macrophages. Description: Cytokine array/ELISA of conditioned medium of primary murine peritoneal macrophages stimulated with paclitaxel-generated ID8 debris. It is filed as cell-based. The conditions noted are these: PTUPB 5 or 10 μM, 2 hours. The protocol: Macrophages were treated with vehicle or PTUPB (1-10 μM) in Dulbecco's phosphate-buffered saline containing calcium and magnesium (PBS^+/+) (Lonza, Basel, Switzerland) and incubated for 2 hours at 37° C. Carboplatin- or paclitaxel-generated ID8 or OVCAR5 debris was added to murine or human macrophages, respectively, at a 1:4 (macrophage:dead cell body) ratio and incubated for 1 hour at 37° C. Next, plates were aspirated, macrophages were re-fed with serum-free medium, and incubated overnight at 37° C. […]
In vivo cytokines (serum or ascites) or cytokines in conditioned medium of macrophages treated with PTUPB and exposed to paclitaxel- or carboplatin-generated debris, were assessed according to the protocols provided by Proteome Profiler Mouse Cytokine Array Kit Panel A, Proteome Profiler Mouse Angiogenesis Array Kit, or Proteome Profiler Human Cytokine Array Kit Panel A (R&D Systems, Inc., Minneapolis, MN). […]
For quantitation of pro-inflammatory cytokines, serum or conditioned medium from macrophages treated with PTUPB and stimulated with paclitaxel-generated ID8 debris or from paclitaxel-generated ID8 debris alone without macrophages was used according to the protocols provided in each ELISA kit (R&D Systems, Minneapolis, MN). […]

The next series has as its system ID8 tumor cells. Description: MTT proliferation assay. It is filed as cell-based, murine. The conditions noted are these: 1-10 μM, 24 hours. The protocol: Cell Proliferation Kit 1 (MTT) (Roche, Basel, Switzerland) was used according to recommended protocol to quantify proliferation. ID8 cells were plated at 5×10^3 cells/well in 96-well plates with DMEM supplemented with 1% FBS and 1% GPS and incubated overnight. Cells were re-fed with DMEM supplemented with 1% FBS and 1% GPS and vehicle or PTUPB (1, 5, or 10 μM). After a 24 hour incubation at 37° C., 10 μL of MTT reagent was added to each well and incubated for 4 hours at 37° C. Next, 100 μL of solubilizing solution was added to each well and incubated overnight at 37° C. VersaMax microplate reader (Molecular Devices, San Jose, CA) was used to quantify the results of the assay. Absorbance readings were normalized to vehicle. Experiments were performed three times with similar results.

Series [2] relates to B/CMBA.Ov murine ovarian epithelial cells. The series is described as follows: Annexin V/PI cell death analysis of B/CMBA.Ov cells. It is filed as cell-based. The conditions noted are these: 5 μM, 24 hours, vs vehicle. The protocol: Murine (ID8) or human (OVCAR5) ovarian tumor cells were treated with vehicle or a chemotherapeutic agent (e.g., cisplatin, carboplatin, or paclitaxel) as described. B/CMBA.Ov murine ovarian epithelial cells were treated with vehicle or PTUPB (1 or 5 μM) for 24 hours. The floating population (e.g., dead cells or “debris”) was collected, and the remaining adhered cells were trypsinized and combined with the dead cells. RAW264.7 murine macrophages were treated with vehicle or PTUPB (5 μM) for 24 hours. The floating population was collected and the remaining adhered cells were detached using a cell scraper (Corning Inc., Corning, NY) and combined with the dead cells. Cells were counted via hemocytometer, pelleted, and resuspended in PBS at 1×10^6 cells/mL. Next, 2×10^5 cells were stained with annexin V and propidium iodide (PI) according to FITC Annexin V/Dead Cell Apoptosis Kit protocol (Life Technologies, Carlsbad, CA). Staining was assessed using the BD LSR Fortessa (BD Biosciences, San Jose, CA) at the Dana-Farber Cancer Institute Jimmy Fund Flow Cytometry Core, and analyzed using FlowJo software (Tree Star Inc., Ashland, OR). Experiments were performed three times with similar results.

Series [3] relates to human monocyte-derived macrophage. The format is cell-based. The following applies: 5 μM, 2 hours.
Series [4] concerns intraperitoneal ovarian tumors (ID8). The series is described as follows: In vivo cytokines (serum, ascites) in mice bearing intraperitoneal ID8 ovarian tumors. The protocol: In vivo cytokines (serum or ascites) or cytokines in conditioned medium of macrophages treated with PTUPB and exposed to paclitaxel- or carboplatin-generated debris, were assessed according to the protocols provided by Proteome Profiler Mouse Cytokine Array Kit Panel A, Proteome Profiler Mouse Angiogenesis Array Kit, or Proteome Profiler Human Cytokine Array Kit Panel A (R&D Systems, Inc., Minneapolis, MN). Array control allows for comparison between membranes. For in vivo analysis, n=2 mice/group (serum); n=1 mouse/group (ascites).
(§1) For quantitation of pro-inflammatory cytokines, serum or conditioned medium from macrophages treated with PTUPB and stimulated with paclitaxel-generated ID8 debris or from paclitaxel-generated ID8 debris alone without macrophages was used according to the protocols provided in each ELISA kit (R&D Systems, Minneapolis, MN).
All animal studies were reviewed and approved by the Animal Care and Use Committee of Beth Israel Deaconess Medical Center, Boston, MA Mice were housed at a maximum of 5 animals per cage in a pathogen-free facility with unlimited access to sterile water and chow. Daily welfare evaluations and animal sacrifices were carried out according to the Committee guidelines. For murine injections, chemotherapy-generated murine (ID8) or human (OVCAR5) ovarian tumor cell debris was combined with ID8 or OVCAR5 living cells at equal volumes in PBS. Six-week-old female C57BL/6 (The Jackson Laboratory, Bar Harbor, ME) or SCID mice (Charles River, Cambridge, MA) were injected subcutaneously or intraperitoneally with 100 μL/mouse of ID8 or OVCAR5 cells, respectively. For orthotopic injections, 6-week-old C57BL/6 female mice were injected with 20 μL/mouse of matrigel (Becton Dickinson and Company, Franklin Lakes, NJ) mixed with paclitaxel-generated ID8 debris and/or ID8 living cells at a 1:1 (matrigel:cells) ratio directly into the right ovarian bursa. Systemic treatment with PTUPB (30 mg/kg/day) or control was administered via mini-osmotic pumps (Alzet Inc., Cupertino, CA) implanted into the peritoneum of the mice 4 weeks post-injection. […]

The test system of series [5] is RAW264.7 murine macrophages. It is filed as cell-based. The conditions noted are these: RFU, percent increase above vehicle-treated macrophages.
Series [6] has as its system RAW264.7 murine macrophages. Description: Cytokine array/ELISA of conditioned medium of RAW264.7 macrophages stimulated with chemotherapy-generated ID8 debris. It is filed as cell-based. The protocol:
Macrophages were treated with vehicle or PTUPB (1-10 μM) in Dulbecco's phosphate-buffered saline containing calcium and magnesium (PBS^+/+) (Lonza, Basel, Switzerland) and incubated for 2 hours at 37° C. Carboplatin- or paclitaxel-generated ID8 or OVCAR5 debris was added to murine or human macrophages, respectively, at a 1:4 (macrophage:dead cell body) ratio and incubated for 1 hour at 37° C. Next, plates were aspirated, macrophages were re-fed with serum-free medium, and incubated overnight at 37° C. The conditioned medium was collected the next day, centrifuged at 1100 rpm for 5 minutes to remove particulates, and stored at −20° C. until further analysis via cytokine array, ELISA, or LC-MS/MS. Collection of RAW264.7 murine macrophage conditioned medium was repeated using debris from three distinct collections for a total of three separate experiments. Collection of human monocyte-derived macrophage conditioned medium was repeated using peripheral blood monocytes from three different human donors and debris from three distinct collections for a total of three separate experiments. Collection of primary murine peritoneal macrophages was repeated using macrophages pooled from 5-10 C57BL/6 female mice and debris from two distinct collections for a total of two separate experiments.
In vivo cytokines (serum or ascites) or cytokines in conditioned medium of macrophages treated with PTUPB and exposed to paclitaxel- or carboplatin-generated debris, were assessed according to the protocols provided by Proteome Profiler Mouse Cytokine Array Kit Panel A, Proteome Profiler Mouse Angiogenesis Array Kit, or Proteome Profiler Human Cytokine Array Kit Panel A (R&D Systems, Inc., Minneapolis, MN). Array control allows for comparison between membranes. […]
as §1

“Also recorded” adds a separate entry of the source.

As for `NS(=O)(=O)c1ccc(-n2nc(CCCNC(=O)Nc3ccc(C(F)(F)F)cc3)cc2-c2ccccc2)cc1` [PTUPB, 4-(5-phenyl-3-{3-[3-(4-trifluoromethyl-phenyl)-ureido]propyl}-pyrazol-1-yl) benzenesulfonamide], in series [1], the “debris-stimulated cytokine surge by primary murine peritoneal macrophages” value is recorded as “inhibited a debris-stimulated cytokine surge”. For the same compound, the “proliferation of ID8 tumor cells in vitro” value with ID8 tumor cells was “inhibited proliferation”. The “induction of cell death of ovarian epithelial cells (B/CMBA.Ov)” value in series [2] is “did not induce cell death”. For the same compound, the “cytokine storm induced by aflatoxin B1-generated HepG2 debris in human monocyte-derived macrophages” value in series [3] was “inhibited”. Also, the “serum levels of CXCL13/BCA-1 and SDF-1/CXCL12” value in series [4] (ID8-bearing mice administered systemic chemotherapy (carboplatin), PTUPB-treated vs control) is recorded as “reduced serum levels”. The “ascites levels of PIGF-2, PTX-3, MMP9, CCL2/MCP-1, fractalkine/CX3CL1, angiopoietin-1” value in series [4] (intraperitoneal ID8 tumors, day 60 post-injection, vs control) is “decreased levels”. Also, in series [4] (mice i.p. injected with ID8 (1×10^6 living cells), day 60 post-injection, vs control), the “pro-angiogenic factors serpin E1/PAI-1 and IGFBP1 in serum” value is “inhibited pro-angiogenic factors”. Besides, the “macrophage phagocytosis of aflatoxin B1-generated tumor cell debris, RAW264.7” value in series [5] was “able to stimulate macrophage phagocytosis; also recorded: stimulates macrophage phagocytosis”. In addition, in series [6] (FIGS. 4A, 4C, 5D, ID8 debris), the “debris-stimulated macrophage release of IL-1ra” value is reported as “suppressed debris-stimulated macrophage release of IL-1ra”. Moreover, the “pro-inflammatory cytokine surge (TNFα, MIP-2/CXCL2, MIP-1β/CCL4, CCL2/MCP-1, sICAM-1/CD54, G-CSF) by debris-stimulated macrophages” value in series [6] (PTUPB 5 μM, 2 hours, paclitaxel- or carboplatin-generated ID8 debris) is on record as “prevented the cytokine surge”. Moreover, the “angiogenic cytokine surge (serpin E1/PAI-1, osteopontin, MMP9, CCL2/MCP-1) by debris-stimulated macrophages” value in series [6] (PTUPB 2.5 or 5 μM, 2 hours, paclitaxel- or carboplatin-generated ID8 debris) is on record as “suppressed an angiogenic cytokine surge”.
